# Assay results reported in PubChem BioAssay (NCI).
# Where “and” joins values, the source holds several entries; their conditions need not be identical. Identical values can stand only once.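 Test compounds were applied to cells in 96-well plates for 48 hours at 5 doses. GI50 is the concentration that inhibits growth by half. The concentration for full growth arrest is given as TGI.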
# Key:
# Test in all cases: DTP human tumour cell line panel, 48 h
# [1] = tested on: A498 renal
# [2] = tested on: ACHN renal
# [3] = tested on: BT-549 breast
# [4] = tested on: COLO 205 colon
# [5] = tested on: HCC-2998 colon
# [6] = tested on: IGROV1 ovarian
# [7] = tested on: NCI/ADR-RES ovarian
# [8] = tested on: OVCAR-5 ovarian
# [9] = tested on: PC-3 prostate
# [10] = tested on: SW-620 colon
SMILES,GI50 [1] [µM],TGI [1],GI50 [2] [µM],TGI [2],GI50 [3] [µM],TGI [3],GI50 [4] [µM],TGI [4],GI50 [5] [µM],TGI [5],GI50 [6] [µM],TGI [6],GI50 [7] [µM],TGI [7],GI50 [8] [µM],TGI [8],GI50 [9] [µM],TGI [9],GI50 [10] [µM],TGI [10]
CC[N+](CC)=c1ccc2nc3c(cc(NCc4ccccc4)c4ccccc43)oc-2c1,0.751,4.62 µM,0.398,1.98 µM,1.14,2.51 µM,0.153,0.311 µM,0.338,1.26 µM,0.258,1.67 µM,0.227,1.76 µM,0.681,2.19 µM,0.264,1.63 µM,0.302,1.4 µM
O=C(Nc1cnn2ccc(N3CCC[C@@H]3c3cc(F)ccc3F)nc12)N1CC[C@H](O)C1,> 100,> 100 µM,> 100,> 100 µM,> 100,> 100 µM,> 100,> 100 µM,> 100,> 100 µM,> 100,> 100 µM,> 100,> 100 µM,> 100,> 100 µM,> 100,> 100 µM,> 100,> 100 µM
COc1ccc(-c2cnc(-c3ccc(F)cc3)[nH]2)cc1,2.2,6.17 µM,15.2,30.5 µM,1.79,4.12 µM,2.2,7.59 µM,7.4,25.1 µM,6.58,12.7 µM,28.6,> 100 µM,12.6,43.9 µM,10.8,68.4 µM,1.91,3.99 µM
Nc1c(C(=O)c2cccc(OCCN3CCOCC3)c2)cnn1-c1ccc(F)cc1,> 25,> 25 µM,> 25,> 25 µM,> 25,> 25 µM,> 25,> 25 µM,> 25,> 25 µM,> 25,> 25 µM,> 25,> 25 µM,> 25,> 25 µM,> 25,> 25 µM,> 25,> 25 µM
Cc1ccc(S(=O)(=O)Oc2ccc3c4c(c(=O)oc3c2)CCCCC4)cc1,6.21,> 100 µM,> 100,> 100 µM,7.1,> 100 µM,4.05,> 100 µM,> 100,> 100 µM,> 100,> 100 µM,6.76,> 100 µM,> 100,> 100 µM,4.26,> 100 µM,,
C(CCc1nnc2c(n1)CCCC2)Cc1nnc2c(n1)CCCC2,,> 100 µM,,> 100 µM,,> 100 µM,,> 100 µM,,> 100 µM,,> 100 µM,,> 100 µM,,> 100 µM,,> 100 µM,,> 100 µM
CN(C)CCNC(=O)c1cccc2cc3ccccc3nc12,1.26,2.8 µM,0.437,2.85 µM,2.41,10.8 µM,0.779,3.55 µM,1.63,5.9 µM,1.47,> 22 µM,1.55,5.83 µM,2.27,> 24.3 µM,2.33,10.8 µM,0.775,3.17 µM
COC(=O)c1ccc(=O)c2nc3/c(=C/O)c(O)cc(=O)c3[nH]c12,,30.8 µM and 17.4 µM,0.478,16.6 µM and 14.5 µM,0.347,6.14 µM and 12.1 µM,6.49,> 100 µM,2.94,25 µM and 18.9 µM,0.469,3.31 µM and 17.5 µM,0.379,> 33.6 µM and 13.8 µM,3.38,13 µM and 22.4 µM,0.525,17.1 µM and 16.6 µM,1.21,> 60.4 µM and 18.9 µM
CS(=O)(=O)N1CCN(Cc2cc3nc(-c4cccc5[nH]ncc45)nc(N4CCOCC4)c3s2)CC1 (tested in a mixture with another compound),0.136,0.774 µM,0.0638,,0.0316,0.102 µM,0.182,0.649 µM,1.31,> 100 µM,0.0324,0.188 µM,0.284,,0.134,,0.0823,,0.824,> 100 µM
NC(=O)c1[nH]nc(C2OC(CO)C(O)C2O)c1O (stereo unspecified),,444 µM,,1730 µM,,1160 µM,,1660 µM,,378 µM,,1280 µM,,105 µM,,2830 µM,,794 µM,,2050 µM
CO[C@H]1[C@H](O)[C@H](O[C@H]2CC[C@@]3(C)[C@H](CC[C@@H]4[C@@H]3CC[C@]3(C)[C@@H](C5=CC(=O)OC5)CC[C@]43O)C2)O[C@@H](C)[C@@H]1O,,0.0252 µM,,0.00152 µM,,0.000665 µM,,0.00509 µM and 0.0316 µM,,0.0584 µM and 0.0399 µM,,,,0.00115 µM,,,0.00525,0.524 µM,,0.00341 µM
N#C/C(=C\c1ccc(Br)cc1)n1nnc2cccc(F)c21,2.04,4.23 µM,1.41,3.48 µM,1.45,3.1 µM,1.98,5.02 µM,1.56,3.13 µM,,,0.398,2.19 µM,1.77,3.48 µM,0.943,3.17 µM,0.475,1.94 µM
COc1cccc(/C=C/C(=O)c2ccc(Cl)cc2Cl)c1OC,16.2,30.5 µM,14.3,28 µM,5.93,20.2 µM,5.44,17.4 µM,14.5,27.7 µM,,,11.1,25.2 µM,17.1,30.9 µM,4.32,17.1 µM,2.98,9.12 µM
N#CC1C(=N)Cc2ccccc2-c2ccccc21 (stereo unspecified),2.78,14 µM,12.8,82.5 µM,8.64,38.7 µM,3.82,20.9 µM,9.96,26 µM,,,3.33,28.9 µM,9.04,> 100 µM,12.7,> 100 µM,4.22,43.4 µM
